In US11104689B2, “Influenza virus replication inhibitor and use thereof” (SUNSHINE LAKE PHARMA CO., LTD., priority 2017, dated 2021):
pEC50: −log10 of the molar value. Read-outs that look alike come from different tables or passages of the source.

How the values were obtained:
[1] = tested on: influenza virus (A/Weiss/43(H1N1)); experiment: Cytopathic effect assay (CPE assay), antiviral activity; assay type: cell-based; settings: MDCK cells, CPE inhibition, CCK-8, read-out: EC50 against influenza virus (A/Weiss/43(H1N1)) in vitro
[2] = Cytotoxicity test group of the CPE assay (no virus added, CCK-8 kit); assay type: cell-based; settings: dog, MDCK cells
Experimental: (§1) Experimental Procedures: MDCK cells were seeded in a 384-well plate with 2000 cells per wells, which were incubated overnight at 37° C., 5% CO2; The culture medium was changed to the fresh culture solution containing different concentrations of the compound and virus H1N1 A/Weiss/43 at a multiplicity of infection to yield 80-95% CPE on the second day. The test compound was serially diluted from the highest concentration of 100 nM in 1:3 dilutions to give 8 concentrations: 100 nM, 33.33 nM, 11.11 nM, 3.70 nM, 1.23 nM, 0.41 nM, 0.14 nM, 0.05 nM. At the same time, a non-medicated virus control group and a non-medicated cell control group free of virus were set up. No virus was added in the cytotoxicity test group but medium was added for replacement. Each group was set in duplicate, and incubated at 37° C. in 5% CO2. The cell activity was measured according to the CCK-8 kit (source: Shanghai Liji Biotechnology Co., Ltd. #D3100L4057) and the data would be used to calculate the antiviral and cytotoxicity of the compound. Data were analyzed by GraphPad Prism, CPE inhibition rate was calculated, and the EC50 was obtained according to the fitted curve. CPE inhibition rate=(absorbance of dosing hole-absorbance of virus control well)/(absorbance of cell control well-virus control well)×100%

[3] = design: species or system Beagle dogs; settings: male, beagle, dog, in vivo
Experimental: Pharmacokinetic studies of compounds of the invention in healthy adult male SD rats, dogs or monkeys were evaluated. The compound of the present invention was administered in form of a solution containing 10% DMSO+10% Kolliphor HS 15+80% physiological saline solution. For intravenous (iv) administration, animals were given with a dose of 0.2 or 1 mg/kg and blood was taken at 0.083, 0.25, 0.5, 1.0, 2.0, 5.0, 7.0, and 24 hours (0.3 mL) and centrifugated for 10 minutes at 3,000 or 4,000 rpm. For oral (po) administration, animals were given with a dose of 1 or 5 mg/kg, taken at 0.25, 0.5, 1.0, 2.0, 5.0, 7.0, and 24 hours (0.3 mL) and centrifugated at 3,000 or 4,000 rpm for 10 minutes. The plasma solution was collected and stored at −20° C. or −70° C. until the LC/MS/MS analysis was performed.

MDCK cells = experiment: Cytotoxicity test group of the CPE assay (no virus added, CCK-8 kit); assay type: cell-based
Experimental: as §1

| Molecule | pEC50 ([1]; H1N1) | CC50 [2] | further results |
| --- | --- | --- | --- |
| O=C1c2c(O)c(=O)ccn2N([C@H]2c3ccc(F)cc3-c3ccsc3-c3ccccc32)[C@@H]2COCCN12 (mixture of isomers) [Example 37, The mixture of (R)-12-((S)-5-fluoro-8H-dibenzo[3,4:6,7]cyclohepta[1,2-b]thiophen-8-yl)-7-hydroxy-3,4,12,12a-tetrahydro-1H-[1,4]oxazino[3,4-c]pyrido[2,1-f][1,2,4]triazine-6,8-dione and (S)-12-((R)-5-fluoro-8H-dibenzo [3,4:6,7]cyclohepta[1,2-b]thiophen-8-yl)-7-hydroxy-3,4,12,12a-tetrahydro-1H-[1,4]oxazino [3,4-c]pyrido [2,1-f][1,2,4]triazine-6,8-dione] | 7.83 | 104 µM | – |
| O=C1c2c(O)c(=O)ccn2N([C@H]2c3ccccc3-c3ccsc3-c3ccccc32)[C@@H]2COCCN12 (racemic) [Example 2, (R)-12-((S)-8H-dibenzo [3,4:6,7]cycloheptyl [1,2-b]thiophen-8-yl)-7-hydroxy-3,4,12,12a-tetrahydro-1H-[1,4] oxazino[3,4-c] pyrido [2,1-f] [1,2,4] triazine-6,8-dione and (S)-12-((R)-8H-dibenzo [3,4:6,7]cycloheptyl [1,2-b]thiophen-8-yl)-7-hydroxy-3,4,12,12a-tetrahydro-1H-[1,4] oxazino[3,4-c] pyrido [2,1-f][1,2,4] triazine-6,8-dione] | 7.64 | > 100 µM | – |
| O=C1c2c(O)c(=O)ccn2N([C@H]2c3ccccc3-c3ccsc3-c3ccccc32)[C@H]2COCCN12 (racemic) [Example 3, (S)-12-((S)-8H-dibenzo [3,4:6,7]cycloheptyl [1,2-b]thiophen-8-yl)-7-hydroxy-3,4,12,12a-tetrahydro-1H-[1,4] oxazino [3,4-c] pyrido [2,1-f] [1,2,4] triazine-6,8-dione and (R)-12-((R)-8H-dibenzo [3,4:6,7]cycloheptyl [1,2-b]thiophen-8-yl)-7-hydroxy-3,4,12,12a-tetrahydro-1H-[1,4] oxazino [3,4-c] pyrido [2,1-f][1,2,4] triazine-6,8-dione] | 7.63 | > 100 µM | – |
| O=C1c2c(O)c(=O)ccn2N([C@H]2c3ccc(F)c(F)c3CSc3c2ccc2ccccc32)[C@@H]2COCCN12 (racemic) [Example 7, (R)-12-((S)-10,11-difluoro-7,12-dihydrobenzo [e]naphtho [1,2-b]thiepin-7-yl)-7-hydroxy-3,4,12,12a-tetrahydro-11H-[1,4] oxazino [3,4-c] pyrido [2,1-f] [1,2,4] triazine-6,8-dione and (S)-12-((R)-10,11-difluoro-7,12-dihydrobenzo[e]naphtho[1,2-b]thiepin-7-yl)-7-hydroxy-3,4,12,12a-tetrahydro-1H-[1,4]oxazino[3,4-c]pyrido[2,1-f][1,2,4]triazine-6,8-dione] | – | > 100 µM | – |
| COc1cccc2c1-c1ccsc1-c1ccccc1C2N1[C@@H]2COCCN2C(=O)c2c(O)c(=O)ccn21 (stereo in doubt) [Example 19, (12aR)-7-hydroxy-12-((8R)-4-methoxy-8H-dibenzo [3,4:6,7]cyclohept[1,2-b]thiophen-8-yl)-3,4,12,12a-tetrahydro-1H-[1,4]oxazino[3,4-c]pyrido[2,1-f] [1,2,4]triazine-6,8-dione] | 7.47 | > 100 µM | – |
| O=C1c2c(O)c(=O)ccn2N([C@H]2c3ccc(F)cc3-c3ccsc3-c3cc(F)ccc32)[C@@H]2COCCN12 [Compound (17-1), (R)-12-((S)-5,11-difluoro-8H-dibenzo[3,4:6,7]cyclohepta[1,2-b]thiophen-8-yl)-7-hydroxy-3,4,12,12a-tetrahydro-1H-[1,4]oxazino[3,4-c]pyrido[2,1-f][1,2,4]triazine-6,8-dione] | 7.73 | 77.5 µM | – |
| O=C1c2c(O)c(=O)ccn2N([C@H]2c3ccc(F)cc3-c3ccsc3-c3ccccc32)[C@@H]2COCCN12 [Compound (20-1), (R)-12-((S)-5-fluoro-8H-dibenzo [3,4:6,7]cyclohept[1,2-b]thiophen-8-yl)-7-hydroxy-3,4,12,12a-tetrahydro-1H-[1,4]oxazino[3,4-c]pyrido[2,1-f][1,2,4]triazine-6,8-diketone] | – | – | pEC50 [1]: 8.31 |
| O=C1c2c(O)c(=O)ccn2N([C@@H]2c3ccccc3-c3sccc3-c3c(F)cccc32)[C@@H]2COCCN12 [Compound (21-2), (12aR)-12-((8S)-4-fluoro-8H-dibenzo [3,4:6,7]cyclohept[1,2-b]thiophen-8-yl)-7-hydroxy-3,4,12,12a-tetrahydro-1H-[1,4]oxazino[3,4-c]pyrido[2,1-f] [1,2,4]triazine-6,8-dione] | 7.72 | – | – |
| O=C1c2c(O)c(=O)ccn2N(C2c3ccccc3SCc3c2ccc2ccccc32)C2COCCN12 (stereo not drawn) [Example 5, 12-(7,13-Dihydrobenzo [b]naphtho [2,1-e]thiepin-7-yl)-7-hydroxy-3,4,12,12a-tetrahydro-1H-[1,4] oxazino [3,4-c] pyrido [2,1-f] [1,2,4]triazine-6,8-dione] | – | > 100 µM | – |
| O=C1c2c(O)c(=O)ccn2N(C2c3ccccc3-c3ccsc3-c3c2ccc(F)c3F)C2COCCN12 (stereo not drawn) [Example 11, 12-(11,12-Difluoro-8H-dibenzo [3,4:6,7]cycloheptyl [1,2-b]thiophen-8-yl)-7-Hydroxy-3,4,12, 12a-tetrahydro-1H-[1,4]oxazino[3,4-c]pyrido[2,1-f][1,2,4]triazine-6,8-dione] | 7.31 | – | – |
| O=C1c2c(O)c(=O)ccn2N(C2c3ccccc3-c3cc(Cl)sc3-c3ccccc32)[C@@H]2COCCN12 (stereo partly drawn) [Example 15, (12aR)-12-(2-chloro-8H-dibenzo [3,4:6,7]cyclohept[1,2-b]thiophen-8-yl)-7-hydroxy-3,4,12,12a-tetrahydro-1H-[1,4] oxazino [3,4-c] pyrido [2,1-f] [1,2,4]triazine-6,8-dione] | – | 39.4 µM | – |
| COC(=O)OCOc1c2n(ccc1=O)N([C@H]1c3ccc(F)cc3-c3ccsc3-c3ccccc31)[C@@H]1COCCN1C2=O [Example 28, methyl (((R)-12-((S)-5-fluoro-8H-dibenzo [3,4:6,7]cyclohept[1,2-b]thiophen-8-yl)-6,8-dioxo 3,4,6,8,12,12a-hexahydro-1H-[1,4]oxazino [3,4-c]pyrido [2,1-f] [1,2, 4]triazin-7-yl)oxy)methyl carbonate] | – | – | Conversion in animals [3]: converted to the compound of Example 21 (21-1) in animals; AUCINF ([3]; iv, 0.2 mg/kg): 1030 ng·h/mL; AUClast ([3]; iv, 0.2 mg/kg): 996 ng·h/mL; Cmax ([3]; iv, 0.2 mg/kg): 144 ng/mL; clearance ([3]; iv, 0.2 mg/kg): 3.22 mL/min/kg; t1/2 ([3]; iv, 0.2 mg/kg): 4.91 h; AUCINF ([3]; po, 1 mg/kg): 2580 ng·h/mL; AUClast ([3]; po, 1 mg/kg): 2430 ng·h/mL; Cmax ([3]; po, 1 mg/kg): 311 ng/mL; F ([3]; po, 1 mg/kg): 57.6%; t1/2 ([3]; po, 1 mg/kg): 5.72 h |
| O=C1c2c(O)c(=O)ccn2N([C@H]2c3ccccc3-c3cnoc3-c3ccccc32)[C@@H]2COCCN12 [Example 38, 12-(8H-Dibenzo [3,4:6,7]cyclohepta[1,2-d]isoxazol-8-yl)-7-hydroxy-3,4,12,12a-tetrahydro-1H-[1,4]oxazino[3,4-c]pyrido[2,1-f] [1,2,4]triazin-6,8-dione] | 7.42 | > 100 µM | – |
| (12aR)-12-((8R)-4,5-difluoro-2-phenyl-8H-dibenzo[3,4:6,7]cyclohept[1,2-b]thiophen-8-yl)-7-hydroxy-3,4,12,12a-tetrahydro-1H-[1,4]oxazino[3,4-c]pyrido[2,1-f] [1,2,4] triazine-6,8-dione and (12aS)-12-((8S)-4,5-difluoro-2-phenyl-8H-dibenzo[3,4:6,7]cyclohept[1,2-b]thiophen-8-yl)-7-hydroxy-3,4,12,12a-tetrahydro-1H-[1,4] oxazino [3,4-c] pyrido [2,1-f][1,2,4] triazine-6,8-dione [Example 12] | – | – | pEC50 [1]: 7.31; CC50 (MDCK cells): 112 µM |
| The mixture of (12aR)-12-((8R)-4-fluoro-8H-dibenzo [3,4:6,7]cyclohepta[1,2-b]thiophen-8-yl)-7-hydroxy-3,4,12,12a-tetrahydro-1H-[1,4]oxazino [3,4-c] pyrido [2,1-f] [1,2,4]triazine-6,8-dione and (12aR)-12-((8S)-4-fluoro-8H-dibenzo [3,4:6,7] cyclohept[1,2-b]thiophen-8-yl)-7-hydroxy-3,4,12,12a-tetrahydro-1H-[1,4]oxazino [3,4-c] pyrido [2,1-f] [1,2,4]triazine-6,8-dione [Example 36] | – | – | pEC50 [1]: 8.01; CC50 (MDCK cells): 36 µM |
